Measurements: US20130324520A1, “RXRG MODULATORS FOR THE TREATMENT OF CANCER” (SLOAN-KETTERING INSTITUTE FOR CANCER RESEARCH, priority 2011, published 2013)
Entries after “also recorded” stand apart in the source; their conditions may differ.

How the values were obtained:
Assay type in all cases: cell-based
H1417 = assay: Drug treatment on cancer cell lines, cell counting; details: RB1 mutant SCLC
From the text: (§1) DMSO was used for control.

H3122 = assay: Drug treatment on cancer cell lines, cell counting; details: NSCLC with EML4-ALK fusion
From the text: as §1

[1] = tested on: p53-targeted genes in RB177; assay: Real time PCR of p53-targeted genes
Protocol: Total RNA was isolated from puromycin-selected cells using RNeasy Mini Kit (Qiagen) or GenElute™ Mammalian Total RNA Miniprep Kit (Sigma). RNA reverse transcription was performed with ImProm-II™ Reverse Transcription System (Promega). Primers were designed by Beacon Designer software (Premier Biosoft International) or web-based Primer3 (http://frodo.wi.mit.edu/primer3/). Relative mRNA levels were determined by qPCR using QuantiTect SYBR Green PCR Kit (Qiagen) or Fermentus Maxima® SYBR Green qPCR Master Mix on an Applied Biosystems ABI 7900HT Sequence Detection System. Two samples for each group were collected and evaluated in triplicate and normalized to β-actin mRNA quantitated in parallel. Program conditions: activation, 95° C. 10 min; amplification, 40 cycles (denaturation 95° C. 20 sec, annealing 54° C. 30 sec, extension 72° C. 30 sec). qPCR primers are listed in Table 7.

PC941102 = assay: Drug treatment on cancer cell lines, cell counting; details: KRAS mutated pancreatic cancer (PC1102)
From the text: as §1

H1650 = assay: Drug treatment on cancer cell lines, cell counting; details: EGFR mutated lung cancer
From the text: as §1

MDA-MB-453 = assay: Drug treatment on cancer cell lines, cell counting; details: HER2 positive breast cancer
From the text: as §1

H460 = assay: Drug treatment on cancer cell lines, cell counting; details: KRAS mutant NSCLC
From the text: as §1

MDA-MB-468 = assay: Drug treatment on cancer cell lines, cell counting
From the text: as §1

HepG2 = assay: Drug treatment on cancer cell lines, cell counting; details: hepatoma
From the text: as §1

H1755 = assay: Drug treatment on cancer cell lines, cell counting; details: BRAF mutated NSCLC
From the text: as §1

LnCap = assay: Drug treatment on cancer cell lines, cell counting
From the text: as §1

H2030 = assay: Drug treatment on cancer cell lines, cell counting; details: KRAS mutant NSCLC
From the text: as §1

H1975 = assay: Drug treatment on cancer cell lines, cell counting; details: EGFR mutated lung cancer
From the text: as §1

PC930201 = assay: Drug treatment on cancer cell lines, cell counting; details: KRAS mutated pancreatic cancer (PC0201)
From the text: as §1

H820 = assay: Drug treatment on cancer cell lines, cell counting; details: EGFR mutated lung cancer
From the text: as §1

[2] = tested on: Rb, CDK2, Emi1, SKP2 in HCT116; assay: Western blot after drug treatment; details: HCT116, day 2
Protocol: […] Sample buffer was added and heated at 95° C. for 5 min before PAGE or for storage at −80° C. Frozen samples were heated again for 5 min before PAGE.

MDM2, p53 in A549 = assay: MDM2 and p53 status after drug treatment; details: A549, day 2

C=C(c1ccc(C(=O)O)cc1)c1cc2c(cc1C)C(C)(C)CCC2(C)C [Bexarotene]
cell growth (H1417): suppressed growth | cell growth (H3122): suppressed growth | cell growth (H3122; listed as bexarotene): significantly suppresses

CN1c2ccc([N+](=O)[O-])cc2N=C(c2ccc(C(=O)O)cc2)c2cc3c(cc21)C(C)(C)CCC3(C)C [HX531]
expression of p53-targeted genes (14-3-3, GADD45, p21, MDM2) [1]: did not promote expression of these genes; also recorded: suppressed | cell growth (PC941102): inhibition; also recorded: sensitive | cell growth (H1650): inhibition; also recorded: sensitive | cell growth (MDA-MB-453): growth inhibition is observed | cell growth (H460): inhibition | sensitivity of cell lines to treatment (MDA-MB-468; HX531 6 uM (FIG. 22)): sensitive | cell growth (MDA-MB-468; PTEN mutant breast cancer): inhibition | cell growth (HepG2): growth inhibition is observed | cell growth (H1755): growth inhibition is observed | sensitivity of cell lines to treatment (LnCap; HX531 6 uM (FIG. 22)): sensitive | cell growth (LnCap; PTEN mutant prostate cancer): inhibition | cell growth (H2030): inhibition | cell growth (H1975): inhibition; also recorded: sensitive | cell growth (PC930201): inhibition; also recorded: sensitive | cell growth (H820): inhibition; also recorded: sensitive | Western blot: Rb phosphorylation, CDK2, Emi1, SKP2 [2]: SKP2 degradation was also observed; also recorded: RB de-phosphorylation and downregulation of CDK2, Emi1, and SKP2; also recorded: significant Emi1 downregulation and inactivation of Emi1, and degradation of SKP2; also recorded: dephosphorylated Rb and downregulated CDK2, Emi1, and SKP2 | MDM2 and p53 status (MDM2, p53 in A549): MDM2 downregulation and inactivation, p53 phosphorylation and activation | MDM2 and p53 status (MDM2, p53 in A549; listed as H531): MDM2 downregulation and inactivation, and p53 phosphorylation and activation
